Assay results published in US20230080270A1, “NANOPARTICLES ENCAPSULATING SMALL MOLECULES” (ETH ZURICH, priority 2020, published 2023).
“And” between values parts separate entries of the source, which are not always exact repeats. Equal values may be shown once.

Tests used:
[1] = system: HeLa cells; test: Flow cytometry of cellular uptake in HeLa cells; assay type: cell-based, human; conditions: 500 nM Nile Red, population gating based on the PBS control
Method: (§1) Cell culture. HeLa cells were maintained in Dulbecco's Modified Eagle Medium (high glucose) supplemented with 10% fetal bovine serum (FBS), 2 mM L-glutamine, 2 mM GlutaMAX and 1 μg/mL gentamicin. Cells were cultured in 5% CO2 at 37° C. and typically split in a 1:4 ratio every 3 days. Only passage numbers between 7-20 were used for all experiments.
Flow cytometry. HeLa cells were seeded at a density of 30,000 cells per well in a 24-well plate in 500 μL of culture medium and allowed to recover at 37° C. and 5% CO2 for 24 hours to reach 60-80% confluency. Both OP protein and surfactant solutions were sterilized by filtration through a 0.22 μm membrane, and stocks were prepared in sterile PBS. Nile Red solution (50 μM) in 1:1 EtOH:H2O was used without sterilization. OP capsid-micelle complexes were prepared as described above. For each well 20 μL of sample in PBS was added to 200 μL of culture media to give the final concentration of 200 nM. Cells were incubated for 16-20 h in 5% CO2 at 37° C. before washing with PBS and trypsinization (0.05% Trypsin-EDTA (Thermo Fisher Scientific, USA), 4 minutes at 37° C.). Cells were collected in cold culture medium and washed twice with cold PBS before resuspension in flow cytometry buffer (PBS with 5% FBS).

[2] = cited from earlier work
[3] = system: HeLa cells; test: Cell viability assay (WST-8-based Cell Counting Kit-8); parameters: species or system human; conditions: 2.5 μM lapatinib, 18 hour incubation
Method: as §1
Cell viability assay. Cytotoxicity was assessed using the WST-8-based Cell Counting Kit-8 from Sigma according to the manufacturer's instructions. HeLa cells were seeded at a density of 5,000 cells per well in a 96-well plate in 100 μL of culture medium and allowed to recover at 37° C. and 5% CO2 for 24 hours. Protein, surfactant and drug samples were prepared by serial dilution in sterile PBS. As a negative control 10 μL of 10% Triton X-100 in PBS were used per well. The positive control was just PBS. […] The plate was then incubated for 2-4 hours at 37° C. and 5% CO2 before measuring absorbance at 450 nm. The absorbance of CKK-8 in culture media, without cells, was used for background subtraction and samples were normalized to untreated cells to provide the values shown in FIG. 4e,f. Samples were measured in sextuplicate with biological replicates of different protein batches.

[4] = in PBS buffer; cited from earlier work
[5] = Nile Red fluorescence titration (surfactant content and cargo capacity); assay type: physicochemical; conditions: two equivalents of Nile Red, increasing SDS content
Method: Nile Red fluorescence. For a typical fluorimetry experiment, 800 μL samples in PBS buffer were used. For the surfactant loading kinetics the ionic strength was adjusted by dissolving appropriate amounts of NaCl in PBS buffer. Stock solutions of Nile Red in acetone:water (1:1 v/v), or DMSO at concentrations of 50-500 μM were used. The excitation wavelength was set to 535 nm for all experiments.
This number fits with a value of —730 calculated from the volumetric capacity of the OP cavity (˜256 nm^3) and the average volume occupied by an SDS molecule in a micelle (Methods section).
As cargo-carrying is an important characteristic of the protein-micelle complex, the inventors also used fluorescence titration to determine the number of Nile Red molecules that could be accommodated per cage. Single equivalents of Nile Red were added stepwise to a solution of OP:SDS complexes and the fluorescence spectra measured for each addition (FIG. 3d). Between 1-5 molecules of Nile Red per cage, a logarithmic increase in fluorescence emission is observed with each equivalent. From 5-20 molecules of Nile Red a steady decrease in fluorescence is observed, and above 20 a steady increase in fluorescence is observed. We attribute these three distinct stages to: i) Nile Red encapsulation, ii) self-quenching and iii) excess free dye. […]

[6] = Effective concentration / volumetric capacity calculations; conditions: OP cavity ~256 nm^3; SDS micelle radius 17.5 Å, aggregation number 64
Text: Effective concentration calculations. The volume of the OP lumenal cavity (255,528 A) was estimated as a sphere with a radius of 39.4 A. This radius determined by averaging the distances between lumenally exposed residues from the reported crystal structure (Edwardson et al., 2018, op. cit.), using the UCSF Chimera software (Pettersen, E. F. et al. UCSF Chimera—a visualization system for exploratory research and analysis. J. Comput. Chem. 25, 1605-1612 (2004)). The effective concentration of SDS was simply estimated as the number of moles SDS per lumenal cavity volume. The expected number of SDS molecules was estimated by first determining the volume occupied by an individual SDS molecule in a micelle, from the reported average values of SDS micelle radius (17.5 Å) and aggregation number (n=64). Division of the OP cavity volume by the average volume of a single SDS molecule packed into micellar aggregates gives an estimated value of 729 molecules per OP cage, which is within error of the volume estimations and experimental results, which approximate 800 molecules.

[7] = Native agarose gel electrophoresis of OP with increasing SDS equivalents; assay type: physicochemical; conditions: up to 2000 SDS molecules per cage
Text: Native agarose gel electrophoresis.
Cage-templated micelle formation. Sodium dodecyl sulfate (SDS) was chosen as the anionic surfactant (FIG. 2a), due to its aqueous solubility and the potential for favourable hydrogen bond formation between the sulfate headgroup and the many arginine residues on the interior surface of the OP capsid. As SDS is typically used as a protein denaturant, the inventors were curious if charge and shape complementarity of the OP cage could be leveraged to drive formation of a scaffolded micelle, rather than allowing hydrophobic interactions with the protein core to dominate, a pathway that leads to disruption of protein structure. As such, OP was subject to increasing molar equivalents of SDS, up to 2000 molecules per cage, and analyzed by native gel electrophoresis (FIG. 2b).

## CCN(CC)c1ccc2nc3c4ccccc4c(=O)cc-3oc2c1 [Nile Red]
[1]
  fraction of cells Nile Red positive: 58%
[2]
  solubility limit in organic solvents: < 5 mM

## CS(=O)(=O)CCNCc1ccc(-c2ccc3ncnc(Nc4ccc(OCc5cccc(F)c5)c(Cl)c4)c3c2)o1 [lapatinib]
[3]
  effect on cell viability: negligible effect

## CCCCCCCCCCCCOS(=O)(=O)[O-].[Na+] [SDS, Sodium dodecyl sulfate]
[4]
  critical micelle concentration: 4 to 5 mM

B1: OP: 24-mer octahedral porous protein cage with positively charged interior, polypeptide SEQ ID NO: 2 (protein)
chain: MSQAIGILELRSIAAGMELGDAMLKSANVDLLVSKTISRGKFLLMLGGDIGAIQQAIETGTSQAGRLLVDSLVLANIHPSVLPAISGLNSVDKRQAVGIVETRSVAACISAADRAVKGSNVTLVRVHMARGIGGKCYMVVAGDVSDVALAVTVASSSAGAYGRLVYASLIPRPHEAMWRQMVEGLEHHHHHH
modifications: 24-mer cage assembly
[5]
  surfactant molecules per cage at plateau of Nile Red fluorescence: ~800 molecules per cage
[6]
  SDS molecules per OP cage calculated from cavity volume and volume of an SDS molecule in a micelle: 729 molecules per OP cage and 730 molecules per OP cage
[7]
  SDS equivalents per protein cage up to which no change to quaternary structure: approximately 800 equivalents of SDS per protein cage
